Assay results: patent publication US8084621B2, “3-Pyrrolo[b]cyclohexylene-2-dihydroindolinone derivatives and uses thereof” (Jiangsu Simcere Pharmaceutical R&D Co. Ltd., priority 2006, dated 2011)

Molecular target: T1, VEGFR-2 (Homo sapiens, UniProt P35968)
T1 construct: purchased Cell Signaling Technology CO
Assay: Protein kinase activity by ELISA in vitro, VEGFR-2
Format: biochemical
Details: for inhibition at 0.1 µM: concentration of 10^−7 mol/L, read-out: kinase inhibition ratio, VEGFR-2; for IC50: read-out: IC50 of the VEGF Receptor Kinase
Procedure: An ELISA (Enzyme-Linked Immunosorbent Sandwich Assay) procedure may be used to detect and measure the level of protein tyrosine kinase activity. […] According to the principle of ELISA, a monoclonal antibody can react with phosphorylated substrate specially, so biotin-labeled substrate is binded to streptavidin-coated ELISA plate, and then binded to a HRP-labeled goat anti-mouse antibody. Finally TMB is added for a color reaction and the value of A450-A630 is read by ELISA plate reader. The OD value can reflect the inhibitory activity of the VEGFR-2, PDGFR-β, c-Kit tyrosine kinases etc. treated with the test compounds at the different concentrations. So, the assay may be used to measure the inhibition ratio of the compounds for the tyrosine kinase activity. Similar assays can be designed along the same lines for any PK using techniques well known in the art.
According to the principle of ELISA, a monoclonal antibody can react with phosphorylated substrate specially, so biotin-labeled substrate is binded to streptavidin-coated ELISA plate, and then binded to a HRP-labeled goat anti-mouse antibody. Finally TMB is added for a color reaction and the value of A450-A630 is read by ELISA plate reader. The OD value can reflect the inhibitory activity of the VEGFR-2, PDGFR-β c-Kit tyrosine kinases treated with the test compounds at the different concentrations. So, the assay may be used to measure the inhibition ratio of the compounds for the tyrosine kinase activity. Similar assays can be designed along the same lines for any PK using techniques well known in the art.
VEGF Receptor 2, PDGF Receptor-beta and c-kit kinase assay kit (include kinase, 1.25M DTT, substrate peptide, 10 mM ATP, P-Tyr-100 Mouse antibody, 4×HTScan tyrosine kinase buffer), Cell Signaling Technology CO.; HRP labeled goat anti mouse IgG, Protein Tech CO.; TMB, Pierce CO.; Streptavidin Microtitration Plate, Greiner Bio-one CO.; Infinite M200 Reader, Tecan CO.
1.2.1 Immediately transfer enzyme from −80° C. to ice. Allow enzyme to thaw on ice then at 4° C. and centrifugate transiently to the bottom of centrifuge tube, then lay back on ice quickly
1.2.2 Add 10 μl of DTT (1.25 M) to 2.5 ml of 4×HTScan tyrosine kinase buffer (240 mM HEPES pH 7.5, 20 mM MgCl2, 20 mM MnCl2, 12 μM Na3VO4). Transfer 0.6 ml of DTT/Kinase buffer to each enzyme tube to make 4× reaction Cocktail. Incubate 12.5 μl of the 4× reaction cocktail with 12.5 μl/well prediluted compound of interest for 5 minutes at room temperature, and set blank control, free-enzyme control, negative control and positive control. 1.2.3 Add 10 μl 10 mM ATP to 1.25 ml 6 μM substrate peptide. Dilute the mixture with dH20 to 2.5 ml to make 2×ATP/substrate cocktail. Add 25 μl of 2×ATP/substrate cocktail to 25 μl/well preincubated reaction cocktail/compound. Incubate reaction plate at room temperature for 30 minutes. 1.2.4 Add 50 μl/well stop Buffer (50 mM EDTA, pH 8) to stop the reaction. Transfer 25 μl of each reaction and 75 μl dH2O/well to a 96-well streptavidin coated plate and incubate at room temperature for 60 minutes. Wash three times with 200 μl/well PBS/T(1×PBS, 0.05% Tween-20). 1.2.5 Dilute primary antibody, Phospho-Tyrosine mAb (P-Tyr-100), 1:500 in PBS/T with 1% BSA. Add 100 μl/well primary antibody. Incubate at room temperature for 60 minutes. Wash three times with 200 μl/well PBS/T(1×PBS, 0.05% Tween-20). 1.2.6 Prepare appropriate dilution of HRP labeled secondary antibody, 1:500 in PBS/T with 1% BSA. Add 100 μl/well secondary antibody solution. Incubate at room temperature for 30 minutes. Wash five times with 200 μl/well PBS/T 1.2.7 Add 100 μl/well TMB substrate and incubate at room temperature for 1-10 minutes. Add 50 μl 2M H2SO4 to stop the color reaction. Read the absorbance of A450-A630 with the Infinite M200 microtiter plate reader. 1.2.8 Calculate the inhibition ratio with the following formula: […]

T1 sequence (P35968 20-1356): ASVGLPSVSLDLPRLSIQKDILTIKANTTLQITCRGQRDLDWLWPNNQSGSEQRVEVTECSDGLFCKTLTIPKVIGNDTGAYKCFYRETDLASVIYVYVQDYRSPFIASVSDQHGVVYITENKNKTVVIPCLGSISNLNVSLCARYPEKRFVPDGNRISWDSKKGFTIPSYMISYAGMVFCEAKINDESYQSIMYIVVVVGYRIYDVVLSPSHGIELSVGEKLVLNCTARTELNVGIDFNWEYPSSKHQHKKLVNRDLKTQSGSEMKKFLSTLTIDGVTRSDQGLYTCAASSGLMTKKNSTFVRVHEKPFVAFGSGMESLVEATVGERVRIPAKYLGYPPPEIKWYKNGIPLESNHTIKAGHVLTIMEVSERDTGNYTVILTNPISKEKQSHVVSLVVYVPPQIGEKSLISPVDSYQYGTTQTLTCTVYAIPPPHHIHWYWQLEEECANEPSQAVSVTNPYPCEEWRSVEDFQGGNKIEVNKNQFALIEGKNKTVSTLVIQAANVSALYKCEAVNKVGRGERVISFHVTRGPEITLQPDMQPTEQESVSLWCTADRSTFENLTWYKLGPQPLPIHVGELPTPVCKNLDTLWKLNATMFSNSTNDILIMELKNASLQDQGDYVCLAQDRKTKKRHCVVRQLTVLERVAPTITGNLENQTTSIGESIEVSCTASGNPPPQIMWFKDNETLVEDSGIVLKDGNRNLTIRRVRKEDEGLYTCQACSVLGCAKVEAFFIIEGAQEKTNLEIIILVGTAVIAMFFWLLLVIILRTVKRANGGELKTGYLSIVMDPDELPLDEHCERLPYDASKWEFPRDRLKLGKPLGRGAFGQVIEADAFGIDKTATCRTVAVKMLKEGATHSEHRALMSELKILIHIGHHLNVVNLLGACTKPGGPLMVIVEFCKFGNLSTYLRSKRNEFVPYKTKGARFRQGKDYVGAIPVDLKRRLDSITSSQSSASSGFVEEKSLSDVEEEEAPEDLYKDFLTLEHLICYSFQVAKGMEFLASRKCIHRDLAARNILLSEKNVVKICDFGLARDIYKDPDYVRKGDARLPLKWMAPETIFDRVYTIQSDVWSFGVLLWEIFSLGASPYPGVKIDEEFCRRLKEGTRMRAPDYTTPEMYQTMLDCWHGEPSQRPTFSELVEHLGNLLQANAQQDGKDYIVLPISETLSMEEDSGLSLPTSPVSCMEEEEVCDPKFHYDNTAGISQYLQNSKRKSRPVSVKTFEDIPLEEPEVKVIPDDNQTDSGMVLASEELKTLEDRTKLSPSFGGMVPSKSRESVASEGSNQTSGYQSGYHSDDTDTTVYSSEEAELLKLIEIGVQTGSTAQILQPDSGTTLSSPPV

Row | Compound | inhibition at 0.1 µM | IC50
1 | Cc1[nH]c2c(c1C(=O)NCCO)CCC/C2=C1/C(=O)Nc2ccccc21 [I-8, N-(2-hydroxyethyl)-2-methyl-7-[1,2-dihydro-2-oxo-3H-indol-(Z)-3-ylidene]-4,5,6,7-tetrahydro-1H-indole-3-carboxamide] | 76% | 
2 | CCN(CC)CCNC(=O)c1c(C)[nH]c2c1CCC/C2=C1/C(=O)Nc2ccccc21 [I-5, N-(2-(diethylamino)ethyl)-2-methyl-7-[1,2-dihydro-2-oxo-3H-indol-(Z)-3-ylidene]-4,5,6,7-tetrahydro-1H-indole-3-carboxamide] | 74% | 9 nM
3 | CCN(CC)CCNC(=O)c1c(C)[nH]c2c1CCC/C2=C1/C(=O)Nc2ccc(C)cc21 [I-4, N-(2-(diethylamino)ethyl)-2-methyl-7-[1,2-dihydro-5-methyl-2-oxo-3H-indol-(Z)-3-ylidene]-4,5,6,7-tetrahydro-1H-indole-3-carboxamide] | 76% | 5.6 nM
4 | Cc1[nH]c2c(c1C(=O)NCC(O)CN1CCCC1)CCC/C2=C1/C(=O)Nc2ccccc21 (stereo not drawn) [I-70, N-(2-hydroxy-3-(pyrrolidin-1-yl)propyl)-2-methyl-7-[1,2-dihydro-2-oxo-3H-indol-(Z)-3-ylidene]-4,5,6,7-tetrahydro-1H-indole-3-carboxamide] | 84% | 
5 | Cc1[nH]c2c(c1C(=O)NCCO)CCC/C2=C1/C(=O)Nc2ccc(F)cc21 [I-9, N-(2-hydroxyethyl)-2-methyl-7-[1,2-dihydro-5-fluoro-2-oxo-3H-indol-(Z)-3-ylidene]-4,5,6,7-tetrahydro-1H-indole-3-carboxamide] |  | 30 nM
6 | Cc1[nH]c2c(c1C(=O)NCC(O)CN1CCOCC1)CCC/C2=C1/C(=O)Nc2ccc(F)cc21 (stereo not drawn) [I-68, N-(2-hydroxy-3-morpholinopropyl)-2-methyl-7-[1,2-dihydro-5-fluoro-2-oxo-3H-indol-(Z)-3-ylidene]-4,5,6,7-tetrahydro-1H-indole-3-carboxamide] |  | 43 nM
7 | Cc1[nH]c2c(c1C(=O)NCC(O)CN1CCCCC1)CCC/C2=C1/C(=O)Nc2ccc(F)cc21 (stereo not drawn) [I-74, N-(2-hydroxy-3-(piperidin-1-yl)propyl)-2-methyl-7-[1,2-dihydro-5-fluoro-2-oxo-3H-indol-(Z)-3-ylidene]-4,5,6,7-tetrahydro-1H-indole-3-carboxamide] |  | 13 nM
8 | CCN(CC)CCNC(=O)c1c(C)[nH]c2c1CCC/C2=C1/C(=O)Nc2ccc(Cl)cc21 [I-3, N-(2-(diethylamino)ethyl)-2-methyl-7-[1,2-dihydro-5-chloro-2-oxo-3H-indol-(Z)-3-ylidene]-4,5,6,7-tetrahydro-1H-indole-3-carboxamide] | 54% | 5.3 nM
9 | CCN(CC)CC(O)CNC(=O)c1c(C)[nH]c2c1CCC/C2=C1/C(=O)Nc2ccccc21 (stereo not drawn) [I-63, N-(3-(diethylamino)-2-hydroxypropyl)-2-methyl-7-[1,2-dihydro-2-oxo-3H-indol-(Z)-3-ylidene]-4,5,6,7-tetrahydro-1H-indole-3-carboxamide] | 80% | 
10 | Cc1[nH]c2c(c1C(=O)NCCN(C)C)CCC/C2=C1/C(=O)Nc2ccc(F)cc21 [I-6, N-(2-(dimethylamino)ethyl)-2-methyl-7-[1,2-dihydro-5-fluoro-2-oxo-3H-indol-(Z)-3-ylidene]-4,5,6,7-tetrahydro-1H-indole-3-carboxamide] | 79% | 
11 | Cc1[nH]c2c(c1C(=O)NCC(O)CN1CCCC1)CCC/C2=C1/C(=O)Nc2ccc(F)cc21 (stereo not drawn) [I-71, N-(2-hydroxy-3-(pyrrolidin-1-yl)propyl)-2-methyl-7-[1,2-dihydro-5-fluoro-2-oxo-3H-indol-(Z)-3-ylidene]-4,5,6,7-tetrahydro-1H-indole-3-carboxamide] |  | 34 nM
12 | Cc1[nH]c2c(c1C(=O)N1CCN(C)CC1)CCC/C2=C1/C(=O)Nc2ccc(F)cc21 [I-14, 2-methyl-3-(4-methylpiperazine-1-carbonyl)-7-[1,2-dihydro-5-fluoro-2-oxo-3H-indol-(Z)-3-ylidene]-4,5,6,7-tetrahydro-1H-indole] |  | 79 nM
13 | Cc1[nH]c2c(c1C(=O)NCC(O)CN1CCN(C)CC1)CCC/C2=C1/C(=O)Nc2ccc(F)cc21 (stereo not drawn) [I-77, N-[2-hydroxy-3-(4-methylpiperazin-1-yl)propyl]-2-methyl-7-[1,2-dihydro-5-fluoro-2-oxo-3H-indol-(Z)-3-ylidene]-4,5,6,7-tetrahydro-1H-indole-3-carboxamide] |  | 25 nM
14 | CCN(CC)CCNC(=O)c1c(C)[nH]c2c1CCC/C2=C1/C(=O)Nc2ccc(F)cc21 [I-2, N-(2-(diethylamino)ethyl)-2-methyl-7-[1,2-dihydro-5-fluoro-2-oxo-3H-indol-(Z)-3-ylidene]-4,5,6,7-tetrahydro-1H-indole-3-carboxamide] | 75% | 
15 | Cc1[nH]c2c(c1C(=O)NCCCN(C)C)CCC/C2=C1/C(=O)Nc2ccc(Cl)cc21 [I-7, N-(3-(dimethylamino)propyl)-2-methyl-7-[1,2-dihydro-5-chloro-2-oxo-3H-indol-(Z)-3-ylidene]-4,5,6,7-tetrahydro-1H-indole-3-carboxamide] | 82% | 
